Data set [1] relates to Protein Tyrosine Kinase (PTK). Briefly: PTK inhibitory activity, ELISA tyrosine kinase assay with poly-Glu-Tyr substrate. It counts as biochemical, rat. Particulars: for PTK inhibitory activity (in words): in vitro, SAR discussion; for IC50: tyrosine kinase extracted from rat brain tissue, means of three experiments, NA = not active at 5 μg/mL, read-out: Protein Tyrosine Kinase (PTK) inhibition activity, IC50. As for the experimental part:
The activities of PTKs were tested using ELISA. The tyrosine kinase was extracted from brain tissue of rat, and microtiter plates were coated using poly-Glu-Tyr (PGT) as substrates. If the tyrosine residues of PGT were phosphorylated by PTKs, they bound to phospho-specific monoclonal antibody that was labeled specifically with HRP. The absorbance was measured to reflect the activity of PTK.
The phosphorylation assays were performed at 37 °C in a final volume of 40 µL tyrosine kinase. The concentrations of PTKs used to construct calibration curves were as follows: 600, 500, 400, 300, 200 and 100 × 10^−7 U/mL for PTK. A concentration of 500 × 10^−7/μL was used for each inhibitor. Phosphorylation reactions were initiated with the addition of 40 mM ATP (10 μL) into each vessel, and the plate was incubated at 37 °C for 30 min. After completion of reaction, liquid was decanted and the vessels were washed four times with Tween-PBS. One hundred microliters of blocking solution was added to the vessels and incubated at 37 °C for 30 min. After washing the plate with Tween-PBS, anti-phosphotyrosine (50 μL) was added to the vessels and incubated at 37 °C for 30 min. The reaction liquid was decanted and the remaining solution was removed by rinsing four times with Tween-PBS. One hundred μL of HRP coloring agent was added and incubated at 37 °C for 15 min. The reaction was terminated by addition of 1 N sulfuric acid (100 μL /well). The absorbance of the reaction was measured at 450 nm on a microplate reader.

Structures are written as SMILES.

Usually melting point stands for the temperature, or range, at which the solid turns liquid. What is called IC50 is the concentration needed to halve the response being measured.

In turn, `O=C(c1ccc(O)c(O)c1)c1cc(Br)c(Br)o1` [Compound 14, (4,5-Dibromofuran-2-yl)(3,4-dihydroxyphenyl)methanone] registered a melting point of 184 to 186 °C. Moreover, the “PTK inhibitory activity (in words)” value in data set [1] is given as “no activity”.
`COc1ccc(C(=O)c2ccco2)cc1OC` [Compound 3a, (3,4-Dimethoxyphenyl)(furan-2-yl)methanone] gave a melting point of 98 to 100 °C.
The same measure, in the same setting: then `O=C(c1ccc(Br)o1)c1cc(Br)ccc1O` [Compound 8b, (5-Bromo-2-hydroxyphenyl)(5-bromofuran-2-yl)methanone], with 82 to 84 °C.
As for `O=C(c1ccco1)c1cc(O)c(O)c(O)c1Cl` [Compound 22c, (2-Chloro-3,4,5-trihydroxyphenyl)(furan-2-yl)methanone], the melting point was in the range of 150 to 152 °C. For the same compound, the IC50 in data set [1] was determined as 4.62 µM.
`COc1ccc(Br)cc1C(=O)c1ccco1` [Compound 3c, (5-Bromo-2-methoxyphenyl)(furan-2-yl)methanone] came in with a melting point of 66 to 70 °C.
`O=C(c1ccco1)c1cc(Br)c(Br)c(O)c1O` [Compound 22d, (4,5-Dibromo-2,3-dihydroxyphenyl)(furan-2-yl)methanone] yielded a melting point of 138 to 140 °C. In data set [1], the IC50 came out at 9.56 µM.
The compound `COc1ccc(Br)cc1C(=O)c1ccc(Br)o1` [Compound 7b, (5-Bromo-2-methoxyphenyl)(5-bromofuran-2-yl)methanone] gave a melting point of 98 to 100 °C.
In the case of `O=C(c1ccc(Br)o1)c1ccc(O)c(O)c1O` [Compound 8a, (5-Bromofuran-2-yl)(2,3,4-trihydroxyphenyl)methanone], the melting point fell in the range of 132 to 134 °C. For the same compound, the IC50 in data set [1] was 5.31 µM.
Taken in the same sequence, the figures for `O=C(c1ccc(O)c(O)c1)c1ccco1` [Compound 4a, (3,4-Dihydroxyphenyl)(furan-2-yl)methanone] were 132 to 134 °C and 4.66 µM.
As to `COc1c(O)c(C(=O)c2ccco2)cc(Br)c1Br` [Compound 21d, (4,5-Dibromo-2-hydroxy-3-methoxyphenyl)(furan-2-yl)methanone], the melting point fell in the range of 102 to 104 °C.
In the case of `COc1ccc(C(=O)c2ccco2)cc1` [Compound 3d, Furan-2-yl(4-methoxyphenyl)methanone], the melting point lay within 58 to 60 °C.
For the compound `COc1ccc(C(=O)c2ccco2)c(OC)c1O` [Compound 3b, Furan-2-yl(3-hydroxy-2,4-dimethoxyphenyl)methanone], the melting point was in the range of 168 to 170 °C.
For the compound `O=C(c1ccco1)c1ccc(O)c(O)c1O` [Compound 4b, Furan-2-yl(2,3,4-trihydroxyphenyl)methanone], the IC50 in data set [1] came to 6.42 µM.
Compound `O=C(c1ccc(O)c(Br)c1)c1ccco1` [Compound 22a, (3-Bromo-4-hydroxyphenyl)(furan-2-yl)methanone] registered a melting point of 100 to 102 °C.
As for `COc1cccc(OC)c1C(=O)c1ccco1` [Compound 17b, (2,6-Dimethoxyphenyl)(furan-2-yl)methanone], the melting point is 64 to 66 °C.
In turn, `O=C(c1ccco1)c1cccc(O)c1O` [Compound 18a, (2,3-Dihydroxyphenyl)(furan-2-yl)methanone] displayed a melting point of 64 to 66 °C. In addition, in data set [1], the IC50 was found to be 13.2 µM.
In turn, `O=C(c1ccco1)c1c(Br)c(O)c(O)c(O)c1Br` [Compound 22b, (2,6-Dibromo-3,4,5-trihydroxyphenyl)(furan-2-yl)methanone] had a melting point of 148 to 150 °C. The “PTK inhibitory activity (in words)” value in data set [1] is “no activity”.
As to `COc1ccc(C(=O)c2cc(Br)c(Br)o2)cc1O` [Compound 13, (4,5-Dibromofuran-2-yl)(3-hydroxy-4-methoxyphenyl)methanone], the melting point lay within 107 to 109 °C.
`O=C(c1ccco1)c1cc(Br)ccc1O` [Compound 4c, (5-Bromo-2-hydroxyphenyl)(furan-2-yl)methanone] registered a melting point of 88 to 90 °C.
On the same count and under the same terms, as for `COc1c(Br)c(C(=O)c2ccco2)c(Br)c(OC)c1OC` [Compound 21b, (2,6-Dibromo-3,4,5-trimethoxyphenyl)(furan-2-yl)methanone], the figure is 96 to 98 °C.
As to `O=C(c1ccco1)c1c(O)cccc1O` [Compound 18b, (2,6-Dihydroxyphenyl)(furan-2-yl)methanone], the melting point is 66 to 68 °C. In data set [1], the IC50 was 12.7 µM.
In the case of `COc1cc(C(=O)c2ccco2)c(Cl)c(OC)c1OC` [Compound 21c, (2-Chloro-3,4,5-trimethoxyphenyl)(furan-2-yl)methanone], the melting point is 80 to 82 °C.
As for `O=C(c1ccc(O)c(O)c1)c1ccc(Br)o1` [Compound 8c, (5-Bromofuran-2-yl)(3,4-dihydroxyphenyl)methanone], in data set [1], the “PTK inhibitory activity (in words)” value is reported as “strongest activity” and the IC50 came out at 2.72 µM.
